Laboratory results reported in patent publication US20260308159A1, “BICYCLIC HETEROARYLAMIDES HAVING GPR68 MODULATING ACTIVITY” (RECURSION PHARMACEUTICALS, INC., priority 2023, published 2026).

These compounds were tested against T1, human GPR68 (Homo sapiens, UniProt Q15743) (assay: GPR68 Biochemical Assay (Promega GloSensor cAMP assay, GPR68 antagonism)). Conditions: HEK293T cells transiently expressing hGPR68, antagonism of pH 5.5 stimulated cAMP, 15 min, read-out: hGPR68 IC50.
T1 construct: encoding full-length human GPR68 (uniprot ID: Q15743); expressed in transfected cells; host or cells: HEK293T
T1 sequence (Q15743 whole entry): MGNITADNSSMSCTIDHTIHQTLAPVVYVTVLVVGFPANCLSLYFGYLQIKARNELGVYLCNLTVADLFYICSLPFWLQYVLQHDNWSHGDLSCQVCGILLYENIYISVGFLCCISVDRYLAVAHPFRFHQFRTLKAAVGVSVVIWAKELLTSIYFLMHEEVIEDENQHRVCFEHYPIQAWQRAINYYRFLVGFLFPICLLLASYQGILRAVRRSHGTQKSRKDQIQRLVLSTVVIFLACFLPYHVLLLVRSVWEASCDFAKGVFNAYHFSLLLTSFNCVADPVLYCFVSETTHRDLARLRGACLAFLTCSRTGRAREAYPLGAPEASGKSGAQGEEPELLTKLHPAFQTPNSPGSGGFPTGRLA
Assay type: cell-based
Summary of the method: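 Readout is GloSensor cAMP luminescence after 15 min at room temperature, normalised between pH 5.5 stimulation and pH 8.0 minimum controls; IC50 fitted sigmoidally. Test compounds, up to 50 μM final (9-point half-log, 0.5% DMSO), were co-added with pH 5.5 buffer to HEK293T cells transiently expressing full-length human GPR68 plus GloSensor.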

First: COCc1nn2c(C(=O)N[C@H]3C[C@H](OC(F)(F)F)C3)ccnc2c1C(N)=O [Compound 224, 2-(methoxymethyl)-N7-[trans-3-(trifluoromethoxy)cyclobutyl]pyrazolo[1,5-a]pyrimidine-3,7-dicarboxamide]
Second: CNc1nn2c(C(=O)N[C@H]3C[C@@H](OC(F)(F)F)C3)ccnc2c1C(N)=O [Compound 145, 2-(methylamino)-N7-[cis-3-(trifluoromethoxy)cyclobutyl]pyrazolo[1,5-a]pyrimidine-3,7-dicarboxamide]
The IC50 of the first is higher: 50 to 500 nM for the first, < 50 nM for the second.

`COCc1nc2c(C(=O)NCc3ccc(F)cc3)ccnn2c1C(N)=O` [Compound 110, N8-[(4-fluorophenyl)methyl]-2-(methoxymethyl)imidazo[1,2-b]pyridazine-3,8-dicarboxamide] and `COCc1nn2c(C(=O)NCc3ccc(F)cc3)ccnc2c1C(N)=O` [Compound 70, N7-[(4-fluorophenyl)methyl]-2-(methoxymethyl)pyrazolo[1,5-a]pyrimidine-3,7-dicarboxamide] cannot be ordered by IC50: < 50 nM for the first, < 50 nM for the second.

First: CNc1nn2c(C(=O)NC3Cc4ccccc4C3)ccnc2c1C(N)=O [Compound 159, N7-indan-2-yl-2-(methylamino)pyrazolo[1,5-a]pyrimidine-3,7-dicarboxamide]
Second: N#Cc1nn2c(C(=O)NC3Cc4ccccc4C3)ccnc2c1C(N)=O [Compound 21, 2-cyano-N7-indan-2-yl-pyrazolo[1,5-a]pyrimidine-3,7-dicarboxamide]
The IC50 of the first is lower: < 50 nM for the first, 50 to 500 nM for the second. The first is the more potent here.

First: COCc1nn2c(C(=O)NC3Cc4nccn4C3)ccnc2c1C(N)=O (centres unmarked) [Compound 165, N7-(6,7-dihydro-5H-pyrrolo[1,2-a]imidazol-6-yl)-2-(methoxymethyl)pyrazolo[1,5-a]pyrimidine-3,7-dicarboxamide]
Second: COCc1nn2c(C(=O)NC3CCc4nccn4C3)ccnc2c1C(N)=O (centres unmarked) [Compound 187, 2-(methoxymethyl)-N7-(5,6,7,8-tetrahydroimidazo[1,2-a]pyridin-6-yl)pyrazolo[1,5-a]pyrimidine-3,7-dicarboxamide]
The IC50 of the first is lower: 50 to 500 nM for the first, 500 to 5000 nM for the second.

First: CS(=O)(=O)Cc1nn2c(C(=O)NC3Cc4ccccc4C3)ccnc2c1C(N)=O [Compound 215, N7-indan-2-yl-2-(methylsulfonylmethyl)pyrazolo[1,5-a]pyrimidine-3,7-dicarboxamide]
Second: COCc1nn2c(C(=O)NC3Cc4ccccc4C3)ccnc2c1C(N)=O [Compound 57, N7-indan-2-yl-2-(methoxymethyl)pyrazolo[1,5-a]pyrimidine-3,7-dicarboxamide]
The IC50 of the first is higher: 50 to 500 nM for the first, < 50 nM for the second. The second is the more potent here.

First: COc1ccc2[nH]c(C(C)NC(=O)c3ccnc4c(C(N)=O)cnn34)nc2c1 (centres unmarked) [Compound 98, N7-[1-(5-methoxy-1H-1,3-benzodiazol-2-yl)ethyl]pyrazolo[1,5-a]pyrimidine-3,7-dicarboxamide]
Second: NC(=O)c1cnn2c(C(=O)NC3Cc4ccccc4C3)ccnc12 [Compound 1, N7-indan-2-ylpyrazolo[1,5-a]pyrimidine-3,7-dicarboxamide]
The IC50 of the first is higher: 5000 to 50000 nM for the first, 50 to 500 nM for the second.

`COCc1nn2c(C(=O)N[C@H]3CCc4ccccc43)ccnc2c1C(N)=O` [Compound 183, 2-(methoxymethyl)-N7-[(1S)-indan-1-yl]pyrazolo[1,5-a]pyrimidine-3,7-dicarboxamide] and `COCc1nn2c(C(=O)N[C@H]3CCCc4ccccc43)ccnc2c1C(N)=O` [Compound 193, 2-(methoxymethyl)-N7-[(1S)-tetralin-1-yl]pyrazolo[1,5-a]pyrimidine-3,7-dicarboxamide] cannot be ordered by IC50: < 50 nM for the first, < 50 nM for the second.

First: COCc1nc2c(C(=O)NC3CCS(=O)(=O)c4ccccc43)ccnn2c1C(N)=O (centres unmarked) [Compound 221, N8-(1,1-dioxo-3,4-dihydro-2H-thiochromen-4-yl)-2-(methoxymethyl)imidazo[1,2-b]pyridazine-3,8-dicarboxamide]
Second: COCc1nc2c(C(=O)N[C@@H]3CCS(=O)(=O)c4ccccc43)ccnn2c1C(N)=O [Compound 219, 2-(methoxymethyl)-N8-[(4R)-1,1-dioxo-3,4-dihydro-2H-thiochromen-4-yl]imidazo[1,2-b]pyridazine-3,8-dicarboxamide]
The IC50 of the first is higher: 50 to 500 nM for the first, < 50 nM for the second. The second is the more potent here.

First: COCc1nn2c(C(=O)NC3CCC34CC(F)(F)C4)ccnc2c1C(N)=O (centres unmarked) [Compound 131, N7-(2,2-difluorospiro[3.3]heptan-7-yl)-2-(methoxymethyl)pyrazolo[1,5-a]pyrimidine-3,7-dicarboxamide]
Second: COCc1nn2c(C(=O)NC3CCC(F)(F)CC3)ccnc2c1C(N)=O [Compound 80, N7-(4,4-difluorocyclohexyl)-2-(methoxymethyl)pyrazolo[1,5-a]pyrimidine-3,7-dicarboxamide]
The IC50 of the first is higher: 500 to 5000 nM for the first, < 50 nM for the second.

`NC(=O)c1c(C2CC2)nc2c(C(=O)N[C@H]3C[C@@H](OC(F)(F)F)C3)ccnn12` [Compound 151, 2-cyclopropyl-N8-[cis-3-(trifluoromethoxy)cyclobutyl]imidazo[1,2-b]pyridazine-3,8-dicarboxamide] and `NC(=O)c1c(C2CC2)nc2c(C(=O)NC3Cc4ccccc43)ccnn12` (centres unmarked) [Compound 210, N8-(7-bicyclo[4.2.0]octa-1,3,5-trienyl)-2-cyclopropyl-imidazo[1,2-b]pyridazine-3,8-dicarboxamide] cannot be ordered by IC50: < 50 nM for the first, < 50 nM for the second.

`COCc1nn2c(C(=S)NC3Cc4ccccc4C3)ccnc2c1C(N)=O` [Compound 148, 7-(indan-2-ylcarbamothioyl)-2-(methoxymethyl)pyrazolo[1,5-a]pyrimidine-3-carboxamide] and `COCc1nn2c(C(=O)N[C@H]3CCc4ccccc4C3)ccnc2c1C(N)=O` [Compound 79, 2-(methoxymethyl)-N7-[(2S)-tetralin-2-yl]pyrazolo[1,5-a]pyrimidine-3,7-dicarboxamide] cannot be ordered by IC50: < 50 nM for the first, < 50 nM for the second.

First: Cc1nn2c(C(=O)N[C@H]3C[C@@H](C#N)C3)ccnc2c1C(N)=O [Compound 50, N7-(cis-3-cyanocyclobutyl)-2-methyl-pyrazolo[1,5-a]pyrimidine-3,7-dicarboxamide]
Second: NC(=O)c1c(C2CC2)nn2c(C(=O)NC3CCC(F)(F)CC3)ccnc12 [Compound 135, 2-cyclopropyl-N7-(4,4-difluorocyclohexyl)pyrazolo[1,5-a]pyrimidine-3,7-dicarboxamide]
The IC50 of the first is higher: 500 to 5000 nM for the first, < 50 nM for the second.

Compared with `COCc1nn2c(C(=O)Nc3ccc(CN(C)C)cc3)ccnc2c1C(N)=O` [Compound 62, N7-[4-[(dimethylamino)methyl]phenyl]-2-(methoxymethyl)pyrazolo[1,5-a]pyrimidine-3,7-dicarboxamide], `COCc1nn2c(C(=O)NCc3ccc(C)cc3)ccnc2c1C(N)=O` [Compound 72, 2-(methoxymethyl)-N7-(p-tolylmethyl)pyrazolo[1,5-a]pyrimidine-3,7-dicarboxamide] is lower in IC50: 500 to 5000 nM for the first, < 50 nM for the second. The second is the more potent here.

`COCc1nc2c(C(=O)NC3CS(=O)(=O)c4ccccc43)ccnn2c1C(N)=O` (centres unmarked) [Compound 223, N8-(1,1-dioxo-2,3-dihydrobenzothiophen-3-yl)-2-(methoxymethyl)imidazo[1,2-b]pyridazine-3,8-dicarboxamide] and `COCc1nc2c(C(=O)NC3Cc4ccccc4C3)ccnn2c1C(N)=O` [Compound 56, N8-indan-2-yl-2-(methoxymethyl)imidazo[1,2-b]pyridazine-3,8-dicarboxamide] cannot be ordered by IC50: < 50 nM for the first, < 50 nM for the second.

`COCc1nn2c(C(=O)NC3CCC(F)(F)c4cc(F)ccc43)ccnc2c1C(N)=O` (centres unmarked) [Compound 239, 2-(methoxymethyl)-N7-(4,4,6-trifluorotetralin-1-yl)pyrazolo[1,5-a]pyrimidine-3,7-dicarboxamide] and `COCc1nn2c(C(=O)N[C@H]3COc4ccc(F)cc43)ccnc2c1C(N)=O` [Compound 120, N7-[(3R)-5-fluoro-2,3-dihydrobenzofuran-3-yl]-2-(methoxymethyl)pyrazolo[1,5-a]pyrimidine-3,7-dicarboxamide] cannot be ordered by IC50: < 50 nM for the first, < 50 nM for the second.

First: COCc1nc2c(C(=O)NC3Cc4cccnc4C3)ccnn2c1C(N)=O (centres unmarked) [Compound 104, N8-(6,7-dihydro-5H-cyclopenta[b]pyridin-6-yl)-2-(methoxymethyl)imidazo[1,2-b]pyridazine-3,8-dicarboxamide]
Second: COCc1nn2c(C(=O)NC3Cc4cccnc4C3)ccnc2c1C(N)=O (centres unmarked) [Compound 60, N7-(6,7-dihydro-5H-cyclopenta[b]pyridin-6-yl)-2-(methoxymethyl)pyrazolo[1,5-a]pyrimidine-3,7-dicarboxamide]
The IC50 of the first is higher: 50 to 500 nM for the first, < 50 nM for the second.

`NC(=O)c1c(C2CC2)nn2c(C(=O)N[C@@H]3CCS(=O)(=O)c4ccccc43)ccnc12` [Compound 235, 2-cyclopropyl-N7-[(4R)-1,1-dioxo-3,4-dihydro-2H-thiochromen-4-yl]pyrazolo[1,5-a]pyrimidine-3,7-dicarboxamide] and `COCc1nn2c(C(=O)N[C@H]3COc4c(Cl)cccc43)ccnc2c1C(N)=O` [Compound 169, N7-[(3R)-7-chloro-2,3-dihydrobenzofuran-3-yl]-2-(methoxymethyl)pyrazolo[1,5-a]pyrimidine-3,7-dicarboxamide] cannot be ordered by IC50: < 50 nM for the first, < 50 nM for the second.

First: COCc1nn2c(C(=O)N[C@@H]3COc4c3ccc(F)c4F)ccnc2c1C(N)=O [Compound 238, N7-[(3S)-6,7-difluoro-2,3-dihydrobenzofuran-3-yl]-2-(methoxymethyl)pyrazolo[1,5-a]pyrimidine-3,7-dicarboxamide]
Second: Cc1nn2c(C(=O)NC3Cc4ccc(Cc5ccccc5)cc4C3)ccnc2c1C(N)=O (centres unmarked) [Compound 51, N7-(5-benzylindan-2-yl)-2-methyl-pyrazolo[1,5-a]pyrimidine-3,7-dicarboxamide]
The IC50 of the first is lower: < 50 nM for the first, 5000 to 50000 nM for the second. The first is the more potent here.

`NC(=O)c1cnn2c(C(=O)NCC3CCC(F)(F)CC3)ccnc12` [Compound 101, N7-[(4,4-difluorocyclohexyl)methyl]pyrazolo[1,5-a]pyrimidine-3,7-dicarboxamide] and `NC(=O)c1cnn2c(C(=O)NC3CC(F)(F)C3)ccnc12` [Compound 102, N7-(3,3-difluorocyclobutyl)pyrazolo[1,5-a]pyrimidine-3,7-dicarboxamide] fall in the same range of IC50: 500 to 5000 nM for the first, 500 to 5000 nM for the second.
